Data: patent US6949250B2, “Selective algaecides for control of cyanochloronta” (The United States of America as represented by the …, priority 2002, dated 2005)

Assays:
O. perornata = assay: DNA1-19-1 second and third pond efficacy studies: O. perornata filaments; format: in vivo, Oscillatoria perornata; settings: second and third efficacy study; 1, 0.3, and 0.1 μM
Experimental: (§1) The method described by Schrader et al. (2000) was used to determine the potential for using the anthraquinone derivatives as selective algicides in catfish aquaculture ponds. All catfish ponds used in efficacy tests were maintained using commercial pond management practices and were located at the Thad Cochran Pond Facility, Mississippi State University, Stoneville, Miss. Anthraquinone analogs were dissolved in deionized water before application to water within the limnocorrals.
(§2) Limnocorrals in which test compound was applied to the enclosed water were randomly selected, and control (no test compound applied) limnocorrals were included in each efficacy study. For each sampling, two water samples (250 mL) were obtained from within each limnocorral (approximately 6-8 cm below the water surface and from opposite sides of each limnocorral) and mixed together in a 500 mL sample bottle to provide a representative sample of the water contained within the limnocorral.
(§3) In the second study with DNA1-19-1, twelve limnocorrals that were the same size as those used in the first study were placed in another 4-ha earthen catfish pond. […] The sampling regime and procedures used in the first study were followed in a similar manner, except that water samples were obtained before DNA1-19-1 application, 16 hours after application, and at days 2, 4, and 7. […]

chlorophyll a [1] = assay: DNA1-19-1 first pond efficacy study (limnocorrals): chlorophyll a; format: in vivo; settings: 2 μM, within 24 hours
2-methylisoborneol = assay: DNA1-19-1 second and third pond efficacy studies: MIB levels; format: in vivo; settings: second and third efficacy study; 1, 0.3, and 0.1 μM
Experimental: as §1, §2, §3

[2] = DNA2-59-1 third efficacy study: dissipation rate and half-life in pond water (HPLC); format: physicochemical; settings: for DNA2-59-1 Levels in Pond Water: third study, 0.3 μM applied
Experimental: For the third efficacy test with DNA2-59-1, twelve limnocorrals (2.44 m in diameter and 1.53 m high) were placed in a 4-ha earthen pond containing a bloom of O. perornata. The same procedures, application rate (0.3 μM), and methods used in the second efficacy test of DNA2-59-1 were used except six limnocorrals were randomly selected to receive an application rate of 0.3 μM DNA2-59-1 while the other six limnocorrals were controls. Water samples were collected before application of DNA2-59-1, 20 minutes after application, and at days 1, 2, 3, 4, and 7. The same tests and methods used in the first efficacy testing of DNA2-59-1 were used.
Approximately 15 mL each of water samples from DNA2-59-1 efficacy testing that were designated for HPLC analysis were placed in scintillation vials and held in a freezer. Water samples were later melted at room temperature, and 5 mL of each sample was then filtered through a nylon membrane filter (13 mm diameter and 0.45 μm; Whatman International, Maidstone, England) using a 5 mL syringe (Hamilton Company, Reno, Nev.) and a 13 mm syringe filter holder (Fisher Scientific Company, Pittsburgh, Pa.). Filtrate (1 mL) was placed in 2 mL vials and capped using teflon/rubber septum caps (National Scientific Company, Jeddah, Saudia Arabia). The filter paper was removed and placed in a scintillation vial to which 2 mL of HPLC grade methanol (Fisher Scientific, Fair Lawn, N.J.) was added and then sonicated for 5 minutes. The methanol solution was then filtered using a nylon membrane acrodisc (25 mm and 0.45 μm; Pall Life Sciences, Ann Arbor, Mich.), and the methanol filtrate was placed in separate 2 mL vials.
Filtrate samples were analyzed using a Waters 2690 Alliance HPLC containing a 996 PDA detector and a XTerra RP 18 column (150 mm×4.6 mm, 5 μm particle size; Waters Corporation, Milford, Mass.). The mobile phase consisted of 25 mM sodium dihydrogenphosphate in 0.1% phosphoric acid (A) and acetonitrile (B). The gradient was from 80A/20B in 15 minutes to 40A/60B. After each run, a 5 minute wash with methanol was performed, followed by equilibrating the column for 10 minutes with 80A/20B. The temperature was set at 40° C., the flow rate was 1 mL/minute, the detection wavelength 256 nm, and the sample injection volume was 10 μL. All solvents used were HPLC grade (Fisher Scientific, Fair Lawn, N.J.).
Means and standard deviations of data were determined and graphed. The graphs were used to help determine the half-life of DNA2-59-1 in the pond water. Because of the short duration of the first efficacy study, the half-life of DNA2-59-1 in the pond water could not be determined.

chlorophyll a [3] = assay: DNA2-59-1 third pond efficacy study: chlorophyll a; format: in vivo; settings: 0.3 μM, 24 hours after application
Experimental: as §1, §2
(§4) For the third efficacy test with DNA2-59-1, twelve limnocorrals (2.44 m in diameter and 1.53 m high) were placed in a 4-ha earthen pond containing a bloom of O. perornata. […]

green algae = assay: DNA2-59-1 third pond efficacy study: green algae abundance; format: in vivo; settings: 0.3 μM, from three days after application
Experimental: as §1, §2, §4

Microcystis spp. = assay: DNA2-59-1 third pond efficacy study: Microcystis spp. abundance; format: in vivo; settings: 0.3 μM
Experimental: as §1, §2, §4

Oscillatoria perornata = assay: DNA2-59-1 first pond efficacy study: O. perornata abundance; format: in vivo; settings: first study, 0.1, 0.3 and 1 μM
Experimental: as §1
Limnocorrals in which test compound was applied to the enclosed water were randomly selected, and control (no test compound applied) limnocorrals were included in each efficacy study. […]
In the first study, application rates of 0.1 μM (37.7 μg/L), 0.3 μM ([…]), and 1.0 μM (377 μg/L) of DNA2-59-1 were tested using limnocorrals (three replicates per concentration) that were of the same type used for testing DNA1-19-1. […] Water samples were also analyzed to determine the persistence of DNA2-59-1 in the pond water, and this analysis was performed by using high-pressure liquid chromatography (HPLC) (method and results are described later).

| SMILES | numbers of O. perornata filaments compared to controls (result in words) (O. perornata) | Chlorophyll a levels (result in words) (chlorophyll a [1]) | 2-methylisoborneol levels compared to controls (result in words) (2-methylisoborneol) | half-life at 0.3 μM ([2]; pond water in limnocorrals (earthen catfish pond), third efficacy study) | DNA2-59-1 Levels in Pond Water ([2]; 0 hours) | DNA2-59-1 Levels in Pond Water ([2]; 24 hours) | DNA2-59-1 Levels in Pond Water ([2]; 48 hours) | DNA2-59-1 Levels in Pond Water ([2]; 72 hours) | DNA2-59-1 Levels in Pond Water ([2]; 96 hours) | Chlorophyll a levels (result in words) (chlorophyll a [3]) | Numbers of green algae vs control limnocorrals (result in words) (green algae) | Microcystis spp. compared to control limnocorrals (result in words) (Microcystis spp.) | numbers of O. perornata filaments compared to controls (result in words) (Oscillatoria perornata) |
| --- | --- | --- | --- | --- | --- | --- | --- | --- | --- | --- | --- | --- | --- |
| CCN(CC)CCCC(C)NCc1ccc2c(c1)C(=O)c1ccccc1C2=O.O=P(O)(O)O.O=P(O)(O)O (stereo not shown) [DNA1-19-1, 2-[methylamino-N-(1′-methyl-4′-N,N-diethylaminobutyl)]-9,10-anthraquinone diphosphate] | lack of reduction | decreased significantly | lack of reduction |  |  |  |  |  |  |  |  |  |  |
| CC(C)NCc1ccc2c(c1)C(=O)c1ccccc1C2=O [DNA2-59-1, 2-[methylamino-N-(1′-methylethyl)]-9,10-anthraquinone monophosphate] |  |  |  | 19 h | 90.6 ± 7.9 µg/L | 31.5 ± 4.4 µg/L | 9.2 ± 3.2 µg/L | 2.2 ± 0.5 µg/L | 0 µg/L | significantly reduced | significantly higher | not greatly affected | significantly reduced |
